# According to article PMC2580052 (Proteins, 2008):
# Target: T1, geranylgeranyl diphosphate synthase (GGPPS) (Saccharomyces cerevisiae, UniProt Q12051)
# T1 sequence (Q12051 1-335): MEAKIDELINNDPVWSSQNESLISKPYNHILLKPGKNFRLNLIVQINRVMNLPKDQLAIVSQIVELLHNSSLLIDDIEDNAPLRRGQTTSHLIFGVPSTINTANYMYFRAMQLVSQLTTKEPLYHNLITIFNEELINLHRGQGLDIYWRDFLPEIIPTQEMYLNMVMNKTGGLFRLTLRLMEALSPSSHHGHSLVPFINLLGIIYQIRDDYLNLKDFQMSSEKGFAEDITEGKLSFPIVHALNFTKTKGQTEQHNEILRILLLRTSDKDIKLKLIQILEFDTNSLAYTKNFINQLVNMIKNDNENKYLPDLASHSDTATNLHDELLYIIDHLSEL
# Test: X-ray crystal structure
# Format: binding
smiles,measurement,value
"CN(CCCCc1ccccc1)CCC(O)(P(=O)(O)O)P(=O)(O)O [compound 5, N-[methyl(4-phenylbutyl)]-3-aminopropyl-1-hydroxy-1,1-bisphosphonate]","X-ray crystal structure (2.08 Å, soaked crystals)",We thus crystallized and determined the x-ray crystallographic structure of BPH-210 bound to GGPPS.
